The text below walks through data of US11401286B2 (Tetra Discovery Partners, LLC, priority 2012, dated 2022).

A word on the IC50: it is the concentration at which inhibition is half-maximal.

Molecules are shown by their SMILES. Counter-ions that a name gives are not always drawn.

PDE4D7, sequence (Q08499 other isoform, or with tags, fused parts or gaps): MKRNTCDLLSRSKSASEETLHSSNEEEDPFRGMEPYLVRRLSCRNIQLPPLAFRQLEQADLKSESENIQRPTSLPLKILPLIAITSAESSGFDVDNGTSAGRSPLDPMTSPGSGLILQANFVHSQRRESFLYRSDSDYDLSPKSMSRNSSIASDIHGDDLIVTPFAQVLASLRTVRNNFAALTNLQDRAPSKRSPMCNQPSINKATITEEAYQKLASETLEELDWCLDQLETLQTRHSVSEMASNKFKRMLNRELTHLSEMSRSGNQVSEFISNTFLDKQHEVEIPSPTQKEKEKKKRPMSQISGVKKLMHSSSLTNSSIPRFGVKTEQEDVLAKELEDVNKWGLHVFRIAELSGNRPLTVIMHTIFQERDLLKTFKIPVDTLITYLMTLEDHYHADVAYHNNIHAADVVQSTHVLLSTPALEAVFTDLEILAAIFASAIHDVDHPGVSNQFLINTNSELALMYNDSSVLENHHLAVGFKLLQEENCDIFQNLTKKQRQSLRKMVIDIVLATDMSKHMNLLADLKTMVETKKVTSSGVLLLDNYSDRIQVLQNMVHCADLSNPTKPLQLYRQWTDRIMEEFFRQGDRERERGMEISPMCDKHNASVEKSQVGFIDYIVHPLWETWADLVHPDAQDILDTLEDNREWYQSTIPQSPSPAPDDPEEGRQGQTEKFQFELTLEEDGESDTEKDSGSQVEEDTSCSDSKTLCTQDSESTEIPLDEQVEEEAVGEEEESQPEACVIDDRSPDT

One assay concerns the target PDE4D7 (Homo sapiens (Human), UniProt Q08499). The settings on record: read-out: PDE4D7 IC50.
Take `NC(=O)Cc1ccc(S(=O)(=O)c2cc(-c3cccc(Cl)c3)nc3c2CCC3)cc1` [Example 267, 2-(4-((2-(3-chlorophenyl)-6,7-dihydro-5H-cyclopenta[b]pyridin-4-yl)sulfonyl)phenyl)acetamide]: the half-inhibitory concentration (IC50) was greater than 1000 nM.

The same assay, now with this note: read-out: PDE4D7 IC50; PDE4D7 without asterisk.
Take `CCCc1nc(Nc2ccc(C(=O)O)cc2)nc(-c2ccc(Cl)s2)n1` [Example 33, 4-((4-(5-chlorothiophen-2-yl)-6-propyl-1,3,5-triazin-2-yl)amino)benzoic acid]: the IC50 was greater than 1000 nM.

On to `CC(C)c1nc(Nc2ccc(F)cc2)nc(-c2ccc(Cl)s2)n1` [Example 26, 4-(5-chlorothiophen-2-yl)-N-(4-fluorophenyl)-6-isopropyl-1,3,5-triazin-2-amine], for which the IC50 was greater than 1000 nM. Same read-out and setting: for `CC(=O)NC(C(=O)O)c1ccc(Nc2nc(-c3ccc(Cl)s3)nc3c2CCC3)cc1` (stereo not shown) [Example 11, 2-Acetamido-2-[4-[[2-(5-chloro-2-thienyl)-6,7-dihydro-5H-cyclopenta[d]pyrimidin-4-yl]amino]phenyl]acetic acid] the value was greater than 1000 nM. On to `NC(=O)CCCNc1nc(-c2cccc(Cl)c2)nc2c1CCC2` [Example 178, 4-((2-(3-Chlorophenyl)-6,7-dihydro-5H-cyclopenta[d]pyrimidin-4-yl)amino)butanamide], for which the IC50 is greater than 1000 nM. On the same count and under the same terms, next, `OCCc1ccc(Nc2cc(C(F)(F)F)nc(-c3cccc(Cl)c3)n2)cc1` [Example 219, 2-(4-((2-(3-Chlorophenyl)-6-(trifluoromethyl)pyrimidin-4-yl)amino)phenyl)ethanol]: greater than 1000 nM; `NC(=O)Cc1ccc(Nc2nc(-c3cccc(Cl)c3)nc3c2SCCC3)cc1` [Example 271, 2-(4-((2-(3-chlorophenyl)-7,8-dihydro-6H-thiopyrano[3,2-d]pyrimidin-4-yl)amino)phenyl)acetamide]: less than 1000 nM. The same measure, in the same setting: for `NC(=O)C[C@H]1CC[C@H](Nc2cc(-c3cccc(Cl)c3)nc3c2CCC3)CC1` [Example 96, Trans-2-(4-((2-(3-Chlorophenyl)-6,7-dihydro-5H-cyclopenta[b]pyridin-4-yl)amino)cyclohexyl)acetamide hydrochloride] the value was greater than 1000 nM; for `NC(=O)Cc1ccc(Cc2nc(-c3cccc(Cl)c3)nc3c2S(=O)(=O)CCC3)cc1` [Example 277, 2-(4-((2-(3-Chlorophenyl)-5,5-dioxido-7,8-dihydro-6H-thiopyrano[3,2-d]pyrimidin-4-yl)methyl)phenyl)acetamide], less than 1000 nM; for `CC(C)Oc1cc(Nc2ccc(CCO)cc2)c2c(n1)CCC2` [Example 260, 2-(4-((2-Isopropoxy-6,7-dihydro-5H-cyclopenta[b]pyridin-4-yl)amino)phenyl)ethanol hydrochloride], greater than 1000 nM.

For `CCc1cc(/N=c2\[nH]cc(CC(N)=O)o2)nc(-c2cccc(Cl)c2)n1` [Example 192, 2-(2-((2-(3-Chlorophenyl)-6-ethylpyrimidin-4-yl)imino)-2,3-dihydrooxazol-5-yl)acetamide], the IC50 was greater than 1000 nM.

Take `NC(=O)Cc1ccc(Nc2cc(-c3cccc(Cl)c3)[n+]([O-])c3c2CCC3)cc1` [Example 103, 4-((4-(2-Amino-2-oxoethyl)phenyl)amino)-2-(3-chlorophenyl)-6,7-dihydro-5H-cyclopenta[b]pyridine 1-oxide]: the IC50 was greater than 1000 nM. For the compound `OCCc1ccc(Cc2cc(C3CC3)nc(-c3cccc(Cl)c3)n2)cc1` [Example 210, 2-(4-((2-(3-Chlorophenyl)-6-cyclopropylpyrimidin-4-yl)methyl)phenyl)ethanol], the IC50 is greater than 1000 nM. `CCc1c(C)nc(-c2ccc(Cl)s2)nc1Nc1ccc(CS(C)(=O)=O)cc1` [Example 317, 2-(5-chloro-2-thienyl)-5-ethyl-6-methyl-N-[4-(methylsulfonylmethyl)phenyl]pyrimidin-4-amine]: the IC50 was greater than 1000 nM. As for `OCCc1ccc(Nc2nc(-c3cccc(Cl)c3)nc3c2CCCC3)cc1` [Example 235, 2-(4-((2-(3-Chlorophenyl)-5,6,7,8-tetrahydroquinazolin-4-yl)amino)phenyl)ethanol], the IC50 is less than 1000 nM.

In the case of `CCc1c(C)nc(-c2ccc(Cl)s2)nc1Nc1ccc2c(c1)CS(=O)(=O)C2` [Example 312, 2-(5-Chloro-2-thienyl)-N-(2,2-dioxo-1,3-dihydro-2-benzothiophen-5-yl)-5-ethyl-6-methyl-pyrimidin-4-amine], the IC50 was greater than 1000 nM. `O=S1(=O)CCCc2nc(-c3cccc(Cl)c3)nc(Nc3ccc(Cc4nn[nH]n4)cc3)c21` [Example 316, 2-(3-Chlorophenyl)-5,5-dioxo-N-[4-(2H-tetrazol-5-ylmethyl)phenyl]-7,8-dihydro-6H-thiopyrano[3,2-d]pyrimidin-4-amine]: the IC50 was less than 1000 nM. On to `NC(=O)Cc1ccc(Nc2nc(-c3cccc(Cl)c3)nc3c2S(=O)(=O)CC3)cc1` [Example 282, 2-(4-((2-(3-chlorophenyl)-5,5-dioxido-6,7-dihydrothieno[3,2-d]pyrimidin-4-yl)amino)phenyl)acetamide], for which the IC50 was greater than 1000 nM. Still for that read-out and setting: next, `NC(=O)Cc1cccc(Nc2cc(-c3cccc(Cl)c3)nc3c2CCC3)c1` [Example 101, 2-(3-((2-(3-Chlorophenyl)-6,7-dihydro-5H-cyclopenta[b]pyridin-4-yl)amino)phenyl)acetamide hydrochloride]: greater than 1000 nM; `C=Cc1ccc(Nc2nc(-c3cccc(Cl)c3)nc3c2CCC3)cc1` [Example 174, 2-(3-Chlorophenyl)-N-(4-vinylphenyl)-6,7-dihydro-5H-cyclopenta[d]pyrimidin-4-amine]: greater than 1000 nM.

As to `N#CNC(=O)Cc1ccc(Nc2nc(-c3cccc(Cl)c3)nc3c2SCCC3)cc1` [Example 314, 2-[4-[[2-(3-Chlorophenyl)-7,8-dihydro-6H-thiopyrano[3,2-d]pyrimidin-4-yl]amino]phenyl]-N-cyano-acetamide], the IC50 is less than 1000 nM. As to `NC(=O)Cc1ccc(Nc2cc(-c3ncco3)nc3c2CCC3)cc1` [Example 242, 2-(4-((2-(Oxazol-2-yl)-6,7-dihydro-5H-cyclopenta[b]pyridin-4-yl)amino)phenyl)acetamide], the IC50 was greater than 1000 nM. The same measure, in the same setting: for `CCc1nc(Nc2ccc(C(N)=O)cc2)nc(-c2cccc(Cl)c2)n1` [Example 62, 4-(4-(3-chlorophenyl)-6-ethyl-1,3,5-triazin-2-ylamino)benzamide] the value was less than 1000 nM; for `CCc1c(C)nc(-c2ccc(Cl)s2)nc1Nc1ccc(B(O)O)cc1` [Example 292, [4-[[2-(5-Chloro-2-thienyl)-5-ethyl-6-methyl-pyrimidin-4-yl]amino]phenyl]boronic acid], less than 1000 nM. As for `NC(=O)C(CO)Cc1ccc(Nc2cc(-c3cccc(Cl)c3)nc3c2CCC3)cc1` (stereo not shown) [Example 108, 2-(4-((2-(3-Chlorophenyl)-6,7-dihydro-5H-cyclopenta[b]pyridin-4-yl)amino)benzyl)-3-hydroxypropanamide hydrochloride], the IC50 is less than 1000 nM. Same read-out and setting: for `NC(=O)Cc1ccc(Cc2cc(C(F)(F)F)nc(C3CCCC3)n2)cc1` [Example 230, 2-(4-((2-Cyclopentyl-6-(trifluoromethyl)pyrimidin-4-yl)methyl)phenyl)acetamide] the value was greater than 1000 nM; for `CCc1nc(Nc2ccc(CCO)cc2)cc(-c2cccc(Cl)c2)n1` [Example 264, 2-(4-((6-(3-Chlorophenyl)-2-ethylpyrimidin-4-yl)amino)phenyl)ethanol], less than 1000 nM. On the same count and under the same terms, for `CCc1c(C)nc(-c2ccc(Cl)s2)nc1Nc1ccc(CC(=O)NC#N)cc1` [Example 301, 2-[4-[[2-(5-Chloro-2-thienyl)-5-ethyl-6-methyl-pyrimidin-4-yl]amino]phenyl]-N-cyano-acetamide] the value was greater than 1000 nM; for `CC(O)Cc1ccc(Nc2nc(-c3cccc(Cl)c3)nc3c2CCC3)cc1` (stereo not shown) [Example 165, 1-(4-((2-(3-Chlorophenyl)-6,7-dihydro-5H-cyclopenta[d]pyrimidin-4-yl)amino)phenyl)propan-2-ol], greater than 1000 nM. The same measure, in the same setting: next, `CCc1nc(Nc2ccc(F)cc2)nc(-c2ccc(Cl)s2)n1` [Example 28, 4-(5-chlorothiophen-2-yl)-6-ethyl-N-(4-fluorophenyl)-1,3,5-triazin-2-amine]: greater than 1000 nM; `CCc1c(C)nc(-c2ccc(Cl)s2)nc1Nc1ccc(C2=C(O)CCC2=O)cc1` [Example 303, 2-[4-[[2-(5-Chloro-2-thienyl)-5-ethyl-6-methyl-pyrimidin-4-yl]amino]phenyl]-3-hydroxy-cyclopent-2-en-1-one]: greater than 1000 nM. With `NC(=O)Cc1ccc(Nc2cc(C3=CCCC3)nc3c2CCC3)cc1` [Example 246, 2-(4-((2-(Cyclopent-1-en-1-yl)-6,7-dihydro-5H-cyclopenta[b]pyridin-4-yl)amino)phenyl)acetamide hydrochloride], the IC50 was greater than 1000 nM. Still for that read-out and setting: for `CCc1cc(Cc2ccc(Cn3cc(Cl)cn3)cc2)nc(-c2cccc(Cl)c2)n1` [Example 190, 4-(4-((4-Chloro-1H-pyrazol-1-yl)methyl)benzyl)-2-(3-chlorophenyl)-6-ethylpyrimidine] the value was less than 1000 nM; for `OCCc1ccc(Nc2cc(-c3ccc[nH]3)nc3c2CCC3)cc1` [Example 132, 2-(4-((2-(1H-Pyrrol-2-yl)-6,7-dihydro-5H-cyclopenta[b]pyridin-4-yl)amino)phenyl)ethanol hydrochloride], greater than 1000 nM; for `O=C(O)Cc1ccc(Nc2nc(-c3ccc(Cl)s3)nc3c2CCC3)cc1` [Example 9, 2-[4-[[2-(5-Chloro-2-thienyl)-6,7-dihydro-5H-cyclopenta[d]pyrimidin-4-yl]amino]phenyl]acetic acid], greater than 1000 nM.

Take `CC(C)(CO)c1ccc(Cc2cc(-c3cccc(Cl)c3)nc3c2CCC3)cc1` [Example 128, 2-(4-((2-(3-Chlorophenyl)-6,7-dihydro-5H-cyclopenta[b]pyridin-4-yl)methyl)phenyl)-2-methylpropan-1-ol hydrochloride]: the IC50 is greater than 1000 nM.

For `NC(=O)Cc1ccc(Nc2cc(-c3cncc(Cl)c3)nc3c2CCC3)cc1` [Example 134, 2-(4-((2-(5-Chloropyridin-3-yl)-6,7-dihydro-5H-cyclopenta[b]pyridin-4-yl)amino)phenyl)acetamide hydrochloride], the IC50 is greater than 1000 nM.
